Legend:
Type in all cases: physicochemical
[1] = Water solubility of the C60(OH)32 fullerol
[2] = Paramagnetism in solution by the NMR method (D2O solvent, t-butyl alcohol reference); conditions: 300 K
Source text: (§1) The magnetic properties of the fullerol were characterized by several methods. […] A solid sample was further studied using a Quantum Design MPMS-5S […] magnetometer operating at 5 Tesla. […] After correction for the diamagnetic contribution of the sample (using data from C60 for the fullerene carbons and Pascal's constants for the OH groups), the final value of the effective magnetic moment, μb, of the C60(OH)32 is approximately 1.5 Bohr magnetons at 300 K. Given the large diamagnetic contribution, uncertainty in the diamagnetic correction factors, and assuming no spin orbit or other types of spin coupling, this is within the experimental error for predicting one free electron per fullerol molecule in the solid state. A measurement of the paramagnetism of the solution form of the acid fullerol was then conducted using the NMR method employing D2O as the solvent and t-butyl alcohol as the reference compound. Measurement of the chemical shift of the reference peaks indicated a paramagnetism of 2.1 Bohr magnetons at 300 K when in solution.

[3] = Effective magnetic moment of solid sample, Quantum Design MPMS-5S magnetometer at 5 Tesla; conditions: 300 K, after diamagnetic correction
Source text: as §1

[4] = Air stability of the paramagnetic fullerol
Source text: According to a second embodiment, a water-soluble, paramagnetic fullerene derivative comprising about 32 hydroxyl groups attached to C60 fullerene was synthesized and shown to be air-stable, paramagnetic, and an efficient water proton relaxation agent.
These experimental results make C60(OH)32 (or C60(OH)32^− or C60(OH)32^2−) the first reported water-soluble, air-stable fullerene paramagnetic radical.

[5] = Water proton relaxivity (T1), Bruker PC/20 relaxometer; conditions: 20 MHz (0.47 T), 40° C., four concentrations
Procedure: The paramagnetic fullerol's potential as an MRI relaxation agent was evaluated by direct measurement of its water proton relaxivity using a Bruker model PC/20 relaxometer (Bruker Ltd., Canada) operating at a fixed field of 20 MHz (0.47 T) and 40° C. Four separate measurements at four different concentrations were performed to determine the T1 relaxation. A plot of the results is shown in FIG. 3 and indicates a relaxivity of about 0.5 mM^−1sec^−. The relaxivity of the compound is thus considerably lower than the best currently available Gd-chelates (ca. […]) but is still large enough to be useful in the body.

- solubility in water [1]: at least 4 mM
- paramagnetism in solution [2]: 2.1 Bohr magnetons
- effective magnetic moment [3]: approximately 1.5 Bohr magnetons
- stability in air [4]: air-stable
- water proton relaxivity (T1) [5]: about 0.5 mM^−1sec^−
Substance: C60(OH)32
